In patent US8618151B2, “Inhibitors of HCV NS5A” (Presidio Pharmaceuticals, Inc., priority 2008, dated 2013):

The compounds below were run on HCV genotype 1b replicon (assay: HCV replicon assay (1b_Huh-Luc/Neo-ET cell line, luciferase readout)). Settings: Hepatitis C virus, Huh-7, 72 h, read-out: Inhibition of HCV genotype 1b.
Assay type: cell-based
Method: Biological activity of the compounds of the invention was determined using an HCV replicon assay. The 1b_Huh-Luc/Neo-ET cell line persistently expressing a bicistronic genotype 1b replicon in Huh 7 cells was obtained from ReBLikon GMBH. This cell line was used to test compound inhibition using luciferase enzyme activity readout as a measurement of compound inhibition of replicon levels.
On Day 1 (the day after plating), each compound is added in triplicate to the cells. Plates incubated for 72 h prior to running the luciferase assay. Enzyme activity was measured using a Bright-Glo Kit (cat. number E2620) manufactured by Promega Corporation. The following equation was used to generate a percent control value for each compound. % Control=(Average Compound Value/Average Control)*100
The EC50 value was determined using GraphPad Prism and the following equation: Y=Bottom+(Top−Bottom)/1+10^((Log IC50−X)*HillSlope))
EC50 values of compounds are repeated several times in the replicon assay.

| SMILES | EC50 |
| --- | --- |
| COC(=O)N[C@H](C(=O)N1CCC[C@H]1c1ncc(-c2ccc(-c3ccc4cc(-c5c[nH]c([C@@H]6CCCN6C(=O)[C@@H](NC(=O)OC)[C@@H](C)OC)n5)ccc4n3)cc2)[nH]1)C(C)C [compound 40] | < 1 nM |
| COC(=O)N[C@@H](C)C(=O)N1CCC[C@H]1c1nc(-c2ccc3nc(-c4ccc(-c5cnc([C@@H]6CCCN6C(=O)[C@@H](NC(=O)OC)C(C)C)[nH]5)cc4)ccc3c2)c[nH]1 [compound 41] | < 1 nM |
| COC(=O)N[C@H](C(=O)N1CCC[C@H]1c1nc(-c2ccc3nc(-c4ccc(-c5cnc([C@@H]6CCCN6C(=O)[C@@H](NC(=O)OC)C6CCOCC6)[nH]5)cc4)ccc3c2)c[nH]1)C(C)C [compound 42] | < 1 nM |
| COC(=O)N[C@H](C(=O)N1CCC[C@H]1c1nc(-c2ccc3nc(-c4ccc(-c5cnc([C@@H]6CCCN6C(=O)[C@@H](NC(=O)OC)[C@@H](C)OC)[nH]5)cc4)ccc3c2)c[nH]1)C(C)C [compound 43] | < 1 nM |
| COC(=O)N[C@@H](C)C(=O)N1CCC[C@H]1c1ncc(-c2ccc(-c3ccc4cc(-c5c[nH]c([C@@H]6CCCN6C(=O)[C@@H](NC(=O)OC)C(C)C)n5)ccc4n3)cc2)[nH]1 [compound 44] | < 1 nM |
| COC(=O)N[C@H](C(=O)N1CCC[C@H]1c1ncc(-c2ccc(-c3ccc4cc(-c5c[nH]c([C@@H]6CCCN6C(=O)[C@H](NC(=O)OC)c6ccccc6)n5)cnc4c3)cc2)[nH]1)C(C)C [compound 45] | < 1 nM |
| COC(=O)N[C@H](C(=O)N1CCC[C@H]1c1nc(-c2ccc3cc(-c4ccc(-c5cnc([C@@H]6CCCN6C(=O)[C@@H](NC(=O)OC)C6CCOCC6)[nH]5)cc4)ccc3c2)c[nH]1)C(C)C [compound 46] | < 1 nM |
| COC(=O)N[C@H](C(=O)N1CCC[C@H]1c1ncc(-c2ccc(-c3ccc4cc(-c5c[nH]c([C@@H]6CCCN6C(=O)[C@@H](NC(=O)OC)C6CCOCC6)n5)ccc4c3)cc2)[nH]1)C(C)C [compound 47] | < 1 nM |
| COC(=O)N[C@H](C(=O)N1CCC[C@H]1c1ncc(-c2ccc(-c3ccc4cc(-c5c[nH]c([C@@H]6CCCN6C(=O)[C@H](NC(=O)OC)c6ccccc6)n5)ccc4c3)nc2)[nH]1)C(C)C [compound 48] | < 1 nM |
| COC(=O)N[C@H](C(=O)N1CCC[C@H]1c1nc(-c2cnc3cc(-c4ccc(-c5cnc([C@@H]6CCCN6C(=O)[C@@H](NC(=O)OC)C6CCOCC6)[nH]5)cc4)ccc3c2)c[nH]1)C(C)C [compound 49] | < 1 nM |
| COC(=O)N[C@H](C(=O)N1CCC[C@H]1c1ncc(-c2ccc(-c3ccc4cc(-c5c[nH]c([C@@H]6CCCN6C(=O)[C@@H](NC(=O)OC)C6CCOCC6)n5)cnc4c3)cc2)[nH]1)C(C)C [compound 50] | < 1 nM |
| COC(=O)N[C@H](C(=O)N1CCC[C@H]1c1nc(-c2ccc3cc(-c4ccc(-c5cnc([C@@H]6CCCN6C(=O)[C@@H](NC(=O)OC)C6CCOCC6)[nH]5)cn4)ccc3c2)c[nH]1)C(C)C [compound 51] | < 1 nM |
| COC(=O)N[C@H](C(=O)N1CCC[C@H]1c1ncc(-c2ccc(-c3ccc4cc(-c5c[nH]c([C@@H]6CCCN6C(=O)[C@@H](NC(=O)OC)C6CCOCC6)n5)ccc4c3)nc2)[nH]1)C(C)C [compound 52] | < 1 nM |
| COC(=O)N[C@H](C(=O)N1CCC[C@H]1c1nc(-c2ccc3nc(-c4ccc(-c5cnc([C@@H]6CCCN6C(=O)[C@@H](NC(=O)OC)C(C)C)[nH]5)nc4)ccc3c2)c[nH]1)C(C)C [compound 53] | < 1 nM |
| COC(=O)N[C@@H](C(=O)N1CCC[C@H]1c1nc(-c2ccc3nc(-c4ccc(-c5cnc([C@@H]6CCCN6C(=O)[C@H](NC(=O)OC)c6ccccc6)[nH]5)nc4)ccc3c2)c[nH]1)c1ccccc1 [compound 54] | < 1 nM |
| COC(=O)N[C@H](C(=O)N1CCC[C@H]1c1nc(-c2ccc3cc(-c4ccc(-c5cnc([C@@H]6CCCN6C(=O)[C@H](NC(=O)OC)c6ccccc6)[nH]5)cn4)ccc3c2)c[nH]1)C(C)C [compound 56] | < 1 nM |
| COC(=O)N[C@H](C(=O)N1CCC[C@H]1c1nc(-c2cnc3cc(-c4ccc(-c5cnc([C@@H]6CCCN6C(=O)[C@@H](NC(=O)OC)C(C)C)[nH]5)cc4F)ccc3c2)c[nH]1)C(C)C [compound 57] | < 1 nM |
| COC(=O)N[C@H](C(=O)N1CCC[C@H]1c1ncc(-c2ccc(-c3ccc4cc(-c5c[nH]c([C@@H]6CCCN6C(=O)[C@H](NC(=O)OC)c6ccccc6)n5)cnc4c3)c(F)c2)[nH]1)C(C)C [compound 58] | < 1 nM |
| COC(=O)N[C@H](C(=O)N1CCC[C@H]1c1ncc(-c2ccc(-c3ccc4cc(-c5c[nH]c([C@@H]6CCCN6C(=O)[C@@H](NC(=O)OC)C6CCOCC6)n5)cnc4c3)c(F)c2)[nH]1)C(C)C [compound 59] | < 1 nM |
| COC(=O)N[C@H](C(=O)N1CCC[C@H]1c1ncc(-c2ccc(-c3ccc4cc(-c5c[nH]c([C@@H]6CCCN6C(=O)[C@H](NC(=O)OC)c6ccccc6)n5)cnc4c3)nc2)[nH]1)C(C)C [compound 60] | < 1 nM |

| SMILES | EC50 |
| --- | --- |
| COC(=O)N[C@H](C(=O)N1CCC[C@H]1c1ncc(-c2ccc(-c3ccc4cc(-c5c[nH]c([C@@H]6CCCN6C(=O)[C@@H](NC(=O)OC)C6CCOCC6)n5)cnc4c3)nc2)[nH]1)C(C)C [compound 61] | < 1 nM |
| COC(=O)N[C@H](C(=O)N1CCC[C@H]1c1nc(-c2cnc3cc(-c4ccc(-c5cnc([C@@H]6CCCN6C(=O)[C@@H](NC(=O)OC)C6CCOCC6)[nH]5)cn4)ccc3c2)c[nH]1)C(C)C [compound 62] | < 1 nM |
| COC(=O)N[C@H](C(=O)N1CCC[C@H]1c1nc(-c2ccc3cc(-c4ccc(-c5cnc([C@@H]6CCCN6C(=O)[C@H](NC(=O)OC)c6ccccc6)[nH]5)nc4)ccc3c2)c[nH]1)C(C)C [compound 63] | < 1 nM |
| COC(=O)N[C@H](C(=O)N1CCC[C@H]1c1nc(-c2ccc3cc(-c4ccc(-c5cnc([C@@H]6CCCN6C(=O)[C@H](NC(=O)OC)c6ccccc6)[nH]5)cc4F)ccc3c2)c[nH]1)C(C)C [compound 64] | < 1 nM |
| COC(=O)N[C@H](C(=O)N1CCC[C@H]1c1nc(-c2ccc3cc(-c4ccc(-c5cnc([C@@H]6CCCN6C(=O)[C@@H](NC(=O)OC)C6CCOCC6)[nH]5)cc4F)ccc3c2)c[nH]1)C(C)C [compound 65] | < 1 nM |
| COC(=O)N[C@H](C(=O)N1CCC[C@H]1c1nc(-c2ccc3cc(-c4ccc(-c5cnc([C@@H]6CCCN6C(=O)[C@@H](NC(=O)OC)C(C)C)[nH]5)cc4F)ccc3c2)c[nH]1)C(C)C [compound 66] | < 1 nM |
| COC(=O)N[C@H](C(=O)N1CCC[C@H]1c1ncc(-c2ccc(-c3ccc4cc(-c5c[nH]c([C@@H]6CCCN6C(=O)[C@H](NC(=O)OC)c6ccccc6)n5)ccc4c3)c(F)c2)[nH]1)C(C)C [compound 67] | < 1 nM |
| COC(=O)N[C@H](C(=O)N1CCC[C@H]1c1ncc(-c2ccc(-c3ccc4cc(-c5c[nH]c([C@@H]6CCCN6C(=O)[C@@H](NC(=O)OC)C6CCOCC6)n5)ccc4c3)c(F)c2)[nH]1)C(C)C [compound 68] | < 1 nM |
| COC(=O)N[C@H](C(=O)N1CCC[C@H]1c1nc(-c2ccc3cc(-c4ccc(-c5cnc([C@@H]6CCCN6C(=O)[C@H](NC(=O)OC)c6ccccc6)[nH]5)cc4C)ccc3c2)c[nH]1)C(C)C [compound 69] | < 1 nM |
| COC(=O)N[C@H](C(=O)N1CCC[C@H]1c1ncc(-c2ccc(-c3ccc4cc(-c5c[nH]c([C@@H]6CCCN6C(=O)[C@H](NC(=O)OC(C)(C)C)c6ccccc6)n5)ccc4n3)cn2)[nH]1)C(C)C [compound 70] | < 1 nM |
| COC(=O)N[C@H](C(=O)N1CCC[C@H]1c1nc(-c2cnc3cc(-c4ccc(-c5cnc([C@@H]6CCCN6C(=O)[C@H](NC(=O)OC)c6ccccc6)[nH]5)cc4)ccc3c2)c[nH]1)C1CCOCC1 [compound 71] | < 1 nM |
| COC(=O)N[C@H](C(=O)N1CCC[C@H]1c1nc(-c2cnc3cc(-c4ccc(-c5cnc([C@@H]6CCCN6C(=O)[C@H](NC(=O)OC(C)(C)C)c6ccccc6)[nH]5)cc4)ccc3c2)c[nH]1)C1CCOCC1 [compound 72] | < 1 nM |
| COC(=O)N[C@H](C(=O)N1CCC[C@H]1c1nc(-c2cnc3cc(-c4ccc(-c5cnc([C@@H]6CCCN6C(=O)[C@@H](NC(=O)OC)C6CCOCC6)[nH]5)cc4)ccc3c2)c[nH]1)C1CCOCC1 [compound 73] | < 1 nM |
| COC(=O)N[C@H](C(=O)N1CCC[C@H]1c1nc(-c2cnc3cc(-c4ccc(-c5cnc([C@@H]6CCCN6C(=O)[C@@H](NC(=O)OC)C(C)C)[nH]5)cn4)ccc3c2)c[nH]1)C(C)C [compound 74] | < 1 nM |
| COC(=O)N[C@H](C(=O)N1CCC[C@H]1c1nc(-c2cnc3cc(-c4ccc(-c5cnc([C@@H]6CCCN6C(=O)[C@@H](NC(=O)OC)C6CCOCC6)[nH]5)cn4)ccc3c2)c[nH]1)C1CCOCC1 [compound 75] | < 1 nM |
| COC(=O)N[C@H](C(=O)N1CCC[C@H]1c1nc(-c2ccc3[nH]c(-c4ccc(-c5cnc([C@@H]6CCCN6C(=O)[C@@H](NC(=O)OC)C(C)C)[nH]5)cc4)cc(=O)c3c2)c[nH]1)C(C)C [compound 76] | < 1 nM |
| COC(=O)N[C@@H](C(=O)N1CCC[C@H]1c1nc(-c2ccc3[nH]c(-c4ccc(-c5cnc([C@@H]6CCCN6C(=O)[C@H](NC(=O)OC)c6ccccc6)[nH]5)cc4)cc(=O)c3c2)c[nH]1)c1ccccc1 [compound 77] | 10 to 999 nM |
| COC(=O)N[C@@H](C(=O)N1CCC[C@H]1c1nc(-c2ccc3nc(-c4ccc(-c5cnc([C@@H]6CCCN6C(=O)[C@H](NC(=O)OC)c6ccccc6)[nH]5)cc4)cc(OC)c3c2)c[nH]1)c1ccccc1 [compound 78] | < 1 nM |
| COC(=O)N[C@H](C(=O)N1CCC[C@H]1c1nc(-c2ccc3nc(-c4ccc(-c5cnc([C@@H]6CCCN6C(=O)[C@@H](NC(=O)OC)C(C)C)[nH]5)cc4)cc(OC)c3c2)c[nH]1)C(C)C [compound 79] | < 1 nM |
